According to PMC4457651 (Biochimica et biophysica acta, 2015):

Assays:
[1] = target: T1, yeast cytochrome c peroxidase (yCcP) (Saccharomyces cerevisiae, UniProt P00431); test: Equilibrium binding to heme of yCcP by spectrophotometric titration; set-up: species or system S. cervisiae; settings: for KAapp: calculated from best-fit line
T1 sequence (P00431 68-361): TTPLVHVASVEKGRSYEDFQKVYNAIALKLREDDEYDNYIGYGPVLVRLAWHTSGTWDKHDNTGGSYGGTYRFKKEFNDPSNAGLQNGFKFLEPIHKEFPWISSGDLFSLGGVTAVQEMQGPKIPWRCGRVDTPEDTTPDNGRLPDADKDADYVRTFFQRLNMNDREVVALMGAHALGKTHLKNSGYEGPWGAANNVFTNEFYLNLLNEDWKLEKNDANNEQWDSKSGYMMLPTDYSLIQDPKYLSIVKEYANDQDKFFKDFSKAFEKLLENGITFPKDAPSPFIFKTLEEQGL

[2] = target: yCcP (heme and Trp-191 cavity) (Saccharomyces cerevisiae, UniProt P00431); test: Kinetics of ligand binding to yCcP; set-up: species or system S. cervisiae; settings: for KA2: Trp-191 cavity of yCcP; for KA2 / k4: fit to Eq. 5; for k4: Trp-191 cavity of yCcP/MIM complex
[3] = target: rCcP (heme and Trp-191 cavity) (Saccharomyces cerevisiae, UniProt P00431); test: Kinetics of ligand binding to rCcP; set-up: species or system baker's yeast; settings: for Time for initial binding phase to be complete: first kinetic phase, manual mixing
horse metMb = settings: read-out: KDapp, metMb; pH 7; cited from earlier work
[4] = target: recombinant cytochrome c peroxidase (rCcP) (Saccharomyces cerevisiae, UniProt P00431); test: Equilibrium binding to heme of rCcP by spectrophotometric titration; set-up: species or system baker's yeast
CcP(H52L) = CcP(H52L) (Saccharomyces cerevisiae, UniProt P00431, H119L); test: Equilibrium binding to CcP; set-up: species or system baker's yeast
Chain of CcP(H52L) (P00431 68-361 H119L): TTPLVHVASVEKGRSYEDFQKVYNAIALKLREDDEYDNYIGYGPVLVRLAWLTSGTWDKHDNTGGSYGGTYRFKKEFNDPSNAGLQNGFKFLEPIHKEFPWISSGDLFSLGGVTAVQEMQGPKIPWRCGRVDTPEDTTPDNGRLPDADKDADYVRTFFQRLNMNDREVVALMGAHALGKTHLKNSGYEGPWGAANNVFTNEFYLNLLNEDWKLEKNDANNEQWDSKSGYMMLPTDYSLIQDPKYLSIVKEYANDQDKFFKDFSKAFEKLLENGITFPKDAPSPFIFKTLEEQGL

[5] = neutral pH; cited from earlier work
sperm whale metMb = settings: cited from earlier work
CcP(W191G) = settings: read-out: Apparent KD, CcP(W191G)/imidazole complex; cited from earlier work
horse cytochrome c = settings: read-out: KD, horse cytochrome c imidazole complex; cited from earlier work
[6] = target: Chironomus plumosus metHb; settings: read-out: KD, Chironomus plumosus metHb imidazole complex; cited from earlier work
[7] = target: Rhodobacter sphaeroides cytochrome c1; settings: read-out: KD, Rhodobacter sphaeroides cytochrome c1 imidazole complex; cited from earlier work
[8] = target: R. capsulatus cytochrome c2(M96N); settings: read-out: KD, R. capsulatus cytochrome c2(M96N) imidazole complex; cited from earlier work
nitric oxide synthase = settings: read-out: KD, nitric oxide synthase imidazole complex; cited from earlier work
[9] = system: horseradish peroxidase (HRP); settings: pH 9.3; cited from earlier work
cytochrome P450CAM = settings: read-out: KD, cytochrome P450CAM imidazole complex; cited from earlier work
[10] = ionization of free imidazole; cited from earlier work
[11] = pH 7.0, biphasic imidazole titration
[12] = 8.76 μM rCcP, 3.15 M imidazole, pH 7.0

Cn1ccnc1 [1-Methylimidazole, 1-methylimidazole]
Apparent pKa of ionizable group affecting MIM binding affinity ([1]; Saccharomyces cerevisiae (yeast), pH 4): 5.2 ± 0.3 | Increase in binding affinity on decreasing pH from 7.5 to 4.0 ([1]; yCcP): 4 fold | KAapp ([1]; yCcP, pH 4.1): 4.72 M⁻¹ | KAapp ([1]; yCcP, pH 4.5): 4.37 M⁻¹ | KAapp ([1]; yCcP, pH 5.0): 3.53 M⁻¹ | KAapp ([1]; yCcP, pH 5.5): 2.48 M⁻¹ | KAapp ([1]; yCcP, pH 6.0): 1.74 M⁻¹ | KAapp ([1]; yCcP, pH 6.5): 1.40 M⁻¹ | KAapp ([1]; yCcP, pH 7.0): 1.30 M⁻¹ | KAapp ([1]; yCcP, pH 7.5): 1.24 M⁻¹ | Kd [2]: 5 ± 2 mM | KA2 ([2]; pH 4.1): (2.94 ± 0.28) × 10^2 M^−1 | KA2 ([2]; pH 4.5): (9.19 ± 0.52) × 10^1 M^−1 | KA2 ([2]; pH 5.0): (1.74 ± 0.17) × 10^2 M^−1 | KA2 ([2]; pH 5.5): (1.73 ± 0.35) × 10^2 M^−1 | KA2 ([2]; pH 6.0): (2.64 ± 0.18) × 10^2 M^−1 | KA2 ([2]; pH 6.5): (2.13 ± 0.27) × 10^2 M^−1 | KA2 ([2]; pH 7.0): (2.13 ± 0.81) × 10^3 M^−1 | KA2 ([2]; pH 7.5): (4.52 ± 5.10) × 10^3 M^−1 | k4 ([2]; pH 4.1): (1.55 ± 0.08) × 10^−1 M^−1 s^−1 | k4 ([2]; pH 4.5): (2.49 ± 0.16) × 10^−2 M^−1 s^−1 | k4 ([2]; pH 5.0): (2.72 ± 0.35) × 10^−2 M^−1 s^−1 | k4 ([2]; pH 5.5): (1.14 ± 0.03) × 10^−2 M^−1 s^−1 | k4 ([2]; pH 6.0): (1.60 ± 0.03) × 10^−2 M^−1 s^−1 | k4 ([2]; pH 6.5): (1.26 ± 0.03) × 10^−2 M^−1 s^−1 | k4 ([2]; pH 7.0): (9.21 ± 3.17) × 10^−3 M^−1 s^−1 | k4 ([2]; pH 7.5): (5.48 ± 1.2) × 10^0 M^−1 s^−1 | k4, average ([2]; binding into Trp-191 cavity of heme-ligated yCcP, average pH 4.1 to 6.5): (4.1 ± 0.6) × 10^−2 M^−1s^−1 | KA2, average ([2]; binding into Trp-191 cavity, yCcP, average pH 4.1 to 6.5): 200 ± 70 M⁻¹ | kfobs faster than kfobs for the imidazole/CcP reaction [3]: about 10 times | ksobs, observed rate constant of slow absorbance change ([3]; 9.07 μM rCcP, 0.992 M MIM, pH 7.0): (1.13 ± 0.06) × 10^−4 s^−1 | kfobs, lower limit for initial binding ([3]; assuming 97% of reaction complete within 10 s mixing): ≥ 0.35 s⁻¹ | Time for initial binding phase to be complete [3]: ≤ 10 s | Time for initial binding phase to be complete ([3]; listed as MIM): less than 10 s | KA1 as fraction of KAapp ([3]; pH 7): about 4% | Kd (horse metMb): 87 mM

O=[N+]([O-])c1c[nH]cn1 [4-Nitroimidazole, 4-nitroimidazole]
Fraction of yCcP bound to ligand at highest ligand concentration ([1]; ~5 mM 4NI, pH 7.0, estimate): about 2% | Kd [4]: ~100 mM | Fraction of rCcP bound to ligand at highest ligand concentration ([4]; ~5 mM 4NI, pH 7.0, estimate): ~ 5% | Kd (CcP(H52L)): ~30 mM | Fraction of CcP(H52L)/4NI complex formed (CcP(H52L); 4.80 mM 4NI, pH 7.0, estimate): about 14% | Affinity of CcP(H52L) higher than CcP (CcP(H52L); estimated): 7 fold | Kd (horse metMb): 2.5 mM | Concentration of saturated solution in aqueous buffer [5]: less than 6 mM

c1c[nH]cn1 [Imidazole, imidazole]
Fraction of yCcP bound to ligand at highest ligand concentration ([1]; imidazole up to 4.90 M, pH 7.0): about 60% | Binding to CcP weaker than binding to metmyoglobin ([1]; pH 7): about 120 times | KDapp of rCcP complex larger than for yCcP complex ([4]; pH 7.0): about 40% | High-affinity phase of CcP(H52L): greater affinity than yCcP (CcP(H52L)): 25 fold | Low-affinity phase of CcP(H52L) weaker than binding by yCcP (CcP(H52L)): about 3 times | Fraction of high-affinity phase, CcP(H52L) (CcP(H52L); [11]): < 46% | Fraction of low-affinity phase, CcP(H52L) (CcP(H52L); [11]): > 54% | kfobs, observed rate constant of fast phase [3, 12]: (2.13 ± 0.08) × 10^−2 s^−1 | ksobs, observed rate constant of slow phase [3, 12]: (2.91 ± 0.01) × 10^−4 s^−1 | Kd (horse metMb): 28 mM | Rate constant of binding to sperm whale metMb (sperm whale metMb): 360 M⁻¹ s⁻¹ | Kd (sperm whale metMb; read-out: KD, sperm whale metmyoglobin imidazole complex): 26 mM | Kd (CcP(W191G)): 0.7 mM | Kd (horse cytochrome c): 34 mM | Kd [6]: 0.029 mM | Kd [7]: 0.033 mM | Kd [8]: 0.0018 mM | Kd (nitric oxide synthase): 0.063 mM | Formation of HRP/imidazole complex [9]: Only partial formation | Kd (cytochrome P450CAM): 0.4 mM | pKA of free imidazole [10]: 14.4

c1c[nH]cn1 [imidazolium ion]
Rate constant of binding to sperm whale metMb (sperm whale metMb): 127 M⁻¹ s⁻¹
